Measured values from patent EP4763868A1, “RECOMBINANT PTH FUSION PROTEIN, CONSTRUCTION METHOD THEREFOR, AND APPLICATION THEREOF” (KANGZHONG (GUANGDONG) INC., priority 2024, dated 2025).

T1: PTHR1 on UMR-106 cells (UniProt P25961 27-591, limits assumed)
T1 sequence (looked up): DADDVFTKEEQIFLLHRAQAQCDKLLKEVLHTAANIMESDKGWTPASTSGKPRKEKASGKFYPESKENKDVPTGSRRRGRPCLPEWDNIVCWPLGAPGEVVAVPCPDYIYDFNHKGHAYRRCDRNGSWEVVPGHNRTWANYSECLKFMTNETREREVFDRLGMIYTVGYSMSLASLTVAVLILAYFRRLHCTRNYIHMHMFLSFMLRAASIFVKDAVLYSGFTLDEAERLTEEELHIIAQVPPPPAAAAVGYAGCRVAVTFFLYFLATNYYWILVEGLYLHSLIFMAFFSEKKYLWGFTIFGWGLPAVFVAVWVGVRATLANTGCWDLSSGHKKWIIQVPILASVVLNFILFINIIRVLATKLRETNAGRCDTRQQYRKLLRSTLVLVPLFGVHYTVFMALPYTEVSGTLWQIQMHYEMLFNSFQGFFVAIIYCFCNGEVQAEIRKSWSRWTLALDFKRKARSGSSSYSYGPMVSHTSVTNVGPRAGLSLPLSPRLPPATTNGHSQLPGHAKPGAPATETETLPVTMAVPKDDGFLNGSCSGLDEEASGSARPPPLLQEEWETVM


Experiments:
[1] = cited from earlier work
PTHR1 on UMR-106 cells = biological target: T1, PTHR1 on UMR-106 cells; assay: cell-based or functional assay

EC50, biological activity (pGL4.29 reporter, fluorescence intensity) (PTHR1 on UMR-106 cells) [pM]	Molecule	also measured
	CC[C@H](C)[C@H](NC(=O)[C@H](CCC(=O)O)NC(=O)[C@H](CO)NC(=O)[C@@H](NC(=O)[C@@H](N)CO)C(C)C)C(=O)N[C@@H](CCC(N)=O)C(=O)N[C@@H](CC(C)C)C(=O)N[C@@H](CCSC)C(=O)N[C@@H](Cc1cnc[nH]1)C(=O)N[C@@H](CC(N)=O)C(=O)N[C@@H](CC(C)C)C(=O)NCC(=O)N[C@@H](CCCCN)C(=O)N[C@@H](Cc1cnc[nH]1)C(=O)N[C@@H](CC(C)C)C(=O)N[C@@H](CC(N)=O)C(=O)N[C@@H](CO)C(=O)N[C@@H](CCSC)C(=O)N[C@@H](CCC(=O)O)C(=O)N[C@@H](CCCN=C(N)N)C(=O)N[C@H](C(=O)N[C@@H](CCC(=O)O)C(=O)N[C@@H](Cc1c[nH]c2ccccc12)C(=O)N[C@@H](CC(C)C)C(=O)N[C@@H](CCCN=C(N)N)C(=O)N[C@@H](CCCCN)C(=O)N[C@@H](CCCCN)C(=O)N[C@@H](CC(C)C)C(=O)N[C@@H](CCC(N)=O)C(=O)N[C@@H](CC(=O)O)C(=O)N[C@H](C(=O)N[C@@H](Cc1cnc[nH]1)C(=O)N[C@@H](CC(N)=O)C(=O)N[C@@H](Cc1ccccc1)C(=O)O)C(C)C)C(C)C [TP(PTH(1-34)), teriparatide]	half-life ([1]; human, in vivo): 30 min
	Transcon PTH(1-34): polyethylene glycol (PEG)-conjugated prodrug of PTH(1-34) by Ascendis Pharma A/S	time for which serum calcium is maintained at normal physiological levels ([1]; patients, after administration): ≤ 24 hours
61.4	triple-ECD-binding fusion protein T002G-K	
0	human serum albumin nanobody NbHSA (VHH) VHH: QVQLVESGGGLVQTGGSLRLSCAASGSTLVGHSVGFFRQAPGKEREPVVCISSTETVMYYTNSVKGRFTISRDNAKNTVWLQMDRLAPEDTAVYYCAARPQLCSALDYRYNSWGPGTQVTVSS	
